Assay in all cases: NCI-60 cell line screen, 48 h
Assay [1] has as its system T-47D breast.
Assay [2] concerns LOX IMVI melanoma.
The subject of assay [3] is NCI-H522 lung.
The test system of assay [4] is HCT-15 colon.
Assay [5] concerns SW-620 colon.
In assay [6] the test system is HOP-92 NSCLC.
The subject of assay [7] is COLO 205 colon.
Assay [8] concerns MDA-MB-231 breast.
Assay [9] has as its system NCI-H226 lung.
Assay [10] has as its system UACC-62 melanoma.

Structures are written as SMILES.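 Briefly, cells in 96-well plates were exposed to five compound concentrations for 48 h, and endpoints were estimated by linear interpolation. Abbreviation: GI50, concentration required for 50% inhibition of growth. TGI marks complete inhibition of growth.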 Where only a bound is given, the exact number is not on record here.

For `Nc1nc(N)c2cc(Sc3cccc(C(F)(F)F)c3)ccc2n1`, the GI50 in assay [1] is 1.71 µM; in [2], 0.307 µM; in [5], 0.267 µM; in assay [9], 2.34 µM. The TGI turned out to be 3.6 µM in assay [1]; 1.82 µM in assay [2]; 8.34 µM in assay [3]; 12.7 µM in [4]; 1.57 µM in assay [5]; 9.54 µM in assay [6]. The TGI is 3.02 µM in [7], 7.14 µM in assay [8], 8.15 µM in assay [9] and 5.49 µM in [10].

Consider `N#CN1CC[C@H](C(=O)Nc2cc3cc(C(N)=O)ccc3cn2)C1`, for which the GI50 was 0.016 µM in assay [1]; 0.117 µM in [2]; 0.0695 µM in assay [3]; 0.302 µM in [4]; 0.0969 µM in assay [5]; 0.0692 µM in [6]. Also, the GI50 in assay [7] is 0.0855 µM; in assay [8] it was 0.0995 µM; in assay [9], 0.238 µM; in assay [10], 0.0587 µM. For the same compound, the TGI in assay [1] was 0.0651 µM; in assay [2], > 54.9 µM; in assay [3], 0.247 µM; in assay [4], > 100 µM; in [5] it was > 84.9 µM; in [6] it was 0.542 µM. Further, the TGI in assay [7] is 0.268 µM; in assay [8], > 24.5 µM; in assay [9], 5.08 µM; in assay [10] it was 0.399 µM.

Consider `NC(=S)N=Nc1c(O)c2ccccc2c2ccccc12`, for which the GI50 in assay [1] was 14 µM; in assay [2], 2.81 µM; in assay [3], 3.22 µM; in [4], 3.22 µM; in assay [5], 3.44 µM; in assay [6], 18.4 µM. Moreover, the GI50 in assay [7] is 22.8 µM; in assay [8], 16.1 µM; in assay [9] it was 21.3 µM; in [10], 1.69 µM. Moreover, the TGI is > 100 µM in assay [1]; 11.1 µM in assay [2]; 9.66 µM in assay [3]; > 55.4 µM in [4]; 26.6 µM in [5]; 51.6 µM in [6]. Also, the TGI in assay [7] came out at 73.6 µM; in assay [8], 60.2 µM; in assay [9] it was 70.1 µM; in assay [10], 3.19 µM.

On to `Nc1nc(=O)n([C@@H]2CS[C@H](CO)O2)cc1F`, for which the GI50 in [1], in assay [2], in [3], in assay [4], in assay [5] and in assay [6] was > 100 µM each time. Besides, the GI50 in [7], in assay [8], in assay [9] and in assay [10] was > 100 µM each time. In addition, the TGI in [1], in assay [2], in [3], in [4], in [5] and in [6] was > 100 µM each time. In addition, the TGI in assay [7], in [8], in [9] and in [10] was > 100 µM each time.

For `CCOC(=O)/C=C/C(=O)[C@H](CC(C)C)NC(=O)[C@H](Cc1ccccc1)NC(=O)OCc1ccccc1`, the GI50 is 2.1 µM in assay [1]; 1.76 µM in [2]; 2.1 µM in assay [3]; 1.83 µM in assay [4]; 2.86 µM in [5]; 2.56 µM in [6]. The GI50 was 2.46 µM in assay [7], 2.92 µM in [8], 26.4 µM in assay [9] and 3.99 µM in [10]. Besides, the TGI in assay [1] stood at 4.66 µM; in assay [2], 3.39 µM; in [3], 4.37 µM; in assay [4], 3.78 µM; in [5], 8.16 µM; in [6] it was 6.99 µM. Also, the TGI in assay [7] is 5.83 µM; in assay [8], 6.35 µM; in assay [9], 60.4 µM; in assay [10], 16.5 µM.

With `C#COc1cccc(Nc2ncnc3cc(NC(=O)[C@H](C)Cl)ccc23)c1`, the GI50 in [1] is 19.3 µM; in assay [2], 2.54 µM; in [3] it was 1.67 µM; in [4], 2.5 µM; in assay [5], 2.58 µM; in [6] it was > 62.5 µM. In addition, the GI50 in [7] is 3.86 µM; in [8] it was 3.75 µM; in [9], 24.6 µM; in [10], 2.96 µM. Further, the TGI is > 62.5 µM in assay [1]; > 62.5 µM in assay [2]; 8.29 µM in assay [3]; > 62.5 µM in assay [4]; > 62.5 µM in assay [5]; > 62.5 µM in assay [6]. Further, the TGI in assay [7], in assay [8], in [9] and in assay [10] was > 62.5 µM throughout.

Turning to `COc1ccc(C(CC(=O)c2ccccc2)C(C(=O)c2ccccc2)C(c2ccc(OC)cc2)C2C(=O)NC(=S)NC2=O)cc1` (centres undefined), the GI50 in assay [1] was 13.2 µM; in assay [2], 8.18 µM; in assay [3] it was 11.9 µM; in assay [4], 12.9 µM; in assay [5], 14.3 µM; in [6] it was 3.1 µM. The GI50 in assay [7] was 8.86 µM; in [8] it was 2.16 µM; in [9], 38.4 µM; in assay [10] it was 13.3 µM. For the same compound, the TGI in assay [1] was > 100 µM; in [2] it was 20.6 µM; in [3], 35.1 µM; in assay [4], 37.2 µM; in assay [5], 39.9 µM; in assay [6] it was 43.1 µM. The TGI in assay [7] was > 100 µM; in assay [8] it was 10.6 µM; in [9], > 100 µM; in [10], 34 µM.

For the compound `C[C@@H]1COCCN1c1cc(C2([S@@](C)(=N)=O)CC2)nc(-c2ccnc3[nH]ccc23)n1`, the GI50 was 3.43 µM in [1]; 2.14 µM in assay [2]; 8.05 µM in assay [3]; 10 µM in [4]; 8 µM in assay [5]; 1.56 µM in [6]. Moreover, the GI50 in assay [7] is 7.69 µM; in [8], 8.18 µM; in assay [9], 4.26 µM; in assay [10] it was 4.29 µM. Also, the TGI in [1] was 33.4 µM; in assay [2], 14 µM; in assay [3], > 100 µM; in assay [4], > 100 µM; in assay [5] it was > 100 µM; in assay [6], 15.4 µM. Further, the TGI in [7] is > 83.1 µM; in assay [8] it was > 100 µM; in [9], 98.7 µM; in assay [10], 36.6 µM.

On to `CC(=O)OC1CC[C@@]2(C)C(CC[C@]3(C)C2CC=C2[C@@H]4C(C)[C@H](C)CCC4(C)CCC23C)[C@@]1(C)C(=O)O` (some centres undefined), for which the TGI was 43.3 µM in assay [1]; 51.7 µM in assay [2]; 45.4 µM in assay [3]; 43.2 µM in assay [4]; 55.5 µM in [5]; 49.9 µM in assay [6]. Besides, the TGI in [7] was 45 µM; in assay [8] it was 49.6 µM; in assay [9], 53.4 µM; in assay [10] it was 35.3 µM.

On to `O=C(Nc1ccccc1O)c1ccc(NS(=O)(=O)c2cccc3cccnc23)cc1`, for which the GI50 in assay [1] is 0.559 µM; in assay [2] it was 1.23 µM; in assay [3], 0.67 µM; in assay [4] it was 2.08 µM; in assay [5], 0.81 µM; in assay [6], 0.691 µM. For the same compound, the GI50 in [7] was 1.06 µM; in assay [8], 2.17 µM; in assay [9], 2.36 µM; in assay [10] it was 0.539 µM. The TGI in assay [1] came out at 4.16 µM; in assay [2], 4.8 µM; in assay [3], 3.47 µM; in [4] it was 7.71 µM; in [5] it was 4.88 µM; in [6], 3.22 µM. Also, the TGI in assay [7] was found to be 4.01 µM; in assay [8], 7.72 µM; in [9], 7.27 µM; in [10], 3.49 µM.

In the case of `O=C(Nc1cc(Oc2cc(F)c(NC(=O)C3(C(=O)Nc4ccc(F)cc4)CC3)cc2F)ccn1)C1CC1`, the GI50 is 2.33 µM in assay [1]; 2.2 µM in assay [2]; 2.18 µM in [3]; 3 µM in [4]; 3.12 µM in assay [5]; 0.59 µM in assay [6]. Also, the GI50 is 1.4 µM in assay [7], 2.43 µM in [8], 2.53 µM in [9] and 1.19 µM in assay [10]. For the same compound, the TGI is 6.61 µM in [1]; 6.25 µM in assay [2]; 5.84 µM in assay [3]; > 54.2 µM in assay [4]; > 100 µM in assay [5]; 5.86 µM in [6]. In addition, the TGI in assay [7] is 3.27 µM; in assay [8], > 100 µM; in assay [9], 7.98 µM; in assay [10], 5.6 µM.

As for `O=c1oc2ccc(-c3ccc(F)cc3F)cc2c(=O)n1-c1ccc(Cl)c(C(F)(F)F)c1`, the GI50 in assay [1] is 0.585 µM; in [2], 2.18 µM; in assay [3] it was 2.09 µM; in assay [4] it was 2.04 µM; in assay [5], 3.16 µM; in [6] it was 1.58 µM. Moreover, the GI50 was 2.89 µM in assay [7], 2.25 µM in [8], 2.03 µM in assay [9] and 1.55 µM in [10]. Also, the TGI was 4.34 µM in assay [1]; 4.91 µM in assay [2]; 8.97 µM in assay [3]; 8.19 µM in assay [4]; 11.7 µM in [5]; 5.39 µM in [6]. The TGI was determined as 8.54 µM in assay [7], 6.93 µM in [8], 6.11 µM in [9] and 4.15 µM in assay [10].

Regarding `Cc1cccc(NC(=O)/C=C/c2ccc([N+](=O)[O-])cc2)c1`, the TGI in assay [1] is > 55.9 µM; in [2] it was > 53 µM; in [3] it was > 53.9 µM; in [4], > 56.7 µM; in assay [5], > 60.2 µM; in [6], 50.7 µM. Further, the TGI in [7] is > 56.3 µM; in assay [8], > 52.8 µM; in [9], > 72 µM; in assay [10], > 58.5 µM.

On to `COc1ccc(/C=C\c2cc(OC)c(OC)c(OC)c2)cc1OCC(=O)Nc1ccc2nc(C)sc2c1`, for which the GI50 is 9.41 µM in assay [1]; 2.64 µM in assay [2]; 2.28 µM in assay [3]; 2.8 µM in assay [4]; 4.7 µM in [5]; 2.38 µM in assay [6]. Further, the GI50 was 4.4 µM in assay [7], 5.45 µM in [8], 2.75 µM in [9] and 2.19 µM in assay [10]. For the same compound, the TGI in [1] amounted to 33.8 µM; in assay [2], 9 µM; in [3] it was 7.06 µM; in assay [4] it was 10.4 µM; in assay [5], 31.9 µM; in assay [6] it was 7.62 µM. Also, the TGI in assay [7] is 16.2 µM; in assay [8] it was > 100 µM; in assay [9], 12 µM; in [10], 5.16 µM.

`O=C(CC(=O)c1cccc(Cl)c1)c1cccc(Cl)c1`: the GI50 in [1] was 2.53 µM; in [2], 1.37 µM; in assay [3], 2.72 µM; in assay [4], 1.86 µM; in assay [5] it was 2.14 µM; in [6], 1.95 µM. Moreover, the GI50 was 3.97 µM in assay [7], 2.67 µM in assay [8], 2.88 µM in assay [9] and 2.82 µM in assay [10]. Further, the TGI in [1], in assay [2], in assay [3], in assay [4], in [5] and in assay [6] was > 100 µM in each case. The TGI in [7], in assay [8], in [9] and in assay [10] was > 100 µM each time.

As to `Clc1ccccc1C(Nc1ncccn1)Nc1ncccn1`, the TGI in assay [1], in assay [2], in assay [3], in assay [4], in assay [5] and in [6] was > 100 µM throughout. Besides, the TGI in assay [7], in [8], in assay [9] and in assay [10] was > 100 µM throughout.

The values above are taken from PubChem BioAssay (NCI).
